According to US12016843B2, “Compositions and methods for the treatment of amyotrophic lateral sclerosis, parkinson's disease, parkinson's disease with dementia, dementia with lewy bodies, and multiple system atrophy” (priority 2019, dated 2024):

Tests used:
[1] = test system: SOD1 G93A high copy transgenic mice; test: Neurological scoring (NeuroScore) in SOD1 G93A mouse model of ALS; type: in vivo; settings: vs vehicle
Procedure: Study Design. Three experimental groups of n=20 (10 male, 10 female) SOD1 G93A high copy transgenic mice were dosed daily via intraperitoneal administration of vehicle control; (R)-2-amino-N—((S)-1-(((S)-5-amino-1-(3-benzyl-1,2,4-oxadiazol-5-yl)pentyl)amino)-3-(4-hydroxy-2,6-dimethylphenyl)-1-oxopropan-2-yl)-5-guanidinopentanamide (as its tris-HCl salt-(Ia)) at 0.5 mg/kg; or (R)-2-amino-N—((S)-1-(((S)-5-amino-1-(3-benzyl-1,2,4-oxadiazol-5-yl)pentyl)amino)-3-(4-hydroxy-2,6-dimethylphenyl)-1-oxopropan-2-yl)-5-guanidinopentanamide (as its tris-HCl salt—(Ia)) at 5.0 mg/kg. Animals were dosed beginning at 8 weeks of age and dosing was continued until humane end of life (defined by the inability of animal to right itself from either side within 30 seconds when placed on its side). Experimental endpoints and in-life collections and observations were as follows: • 1. Bodyweight measurement. Daily recording of weight. • 2. Neurological scoring. Weekly NeuroScore, a qualitative assessment of neurological disease progression based upon a five-point grading system. […] The average force in grams of the 3 forepaw and 3 all-paws trials are analyzed with and without normalization to body weight. • 4. […]

[2] = test system: SOD1 G93A high copy transgenic mice; test: Plasma neurofilament light chain (NfL) levels in SOD1 G93A mouse model of ALS; type: in vivo; settings: for plasma NfL levels Mean Diff. (Dunnett's multiple comparisons test, Vehicle vs. 0.5 mg/kg): 0.5 mg/kg daily ip; for plasma NfL levels Mean Diff. (Dunnett's multiple comparisons test, Vehicle vs. 0.5 mg/kg) / plasma NfL levels Mean Diff. (Dunnett's multiple comparisons test, Vehicle vs. 5.0 mg/kg): 10 weeks; for plasma NfL levels Mean Diff. (Dunnett's multiple comparisons test, Vehicle vs. 5.0 mg/kg): 5.0 mg/kg daily ip
Procedure: Study Design. Three experimental groups of n=20 (10 male, 10 female) SOD1 G93A high copy transgenic mice were dosed daily via intraperitoneal administration of vehicle control; (R)-2-amino-N—((S)-1-(((S)-5-amino-1-(3-benzyl-1,2,4-oxadiazol-5-yl)pentyl)amino)-3-(4-hydroxy-2,6-dimethylphenyl)-1-oxopropan-2-yl)-5-guanidinopentanamide (as its tris-HCl salt-(Ia)) at 0.5 mg/kg; or (R)-2-amino-N—((S)-1-(((S)-5-amino-1-(3-benzyl-1,2,4-oxadiazol-5-yl)pentyl)amino)-3-(4-hydroxy-2,6-dimethylphenyl)-1-oxopropan-2-yl)-5-guanidinopentanamide (as its tris-HCl salt—(Ia)) at 5.0 mg/kg. Animals were dosed beginning at 8 weeks of age and dosing was continued until humane end of life (defined by the inability of animal to right itself from either side within 30 seconds when placed on its side). Experimental endpoints and in-life collections and observations were as follows: • 1. Bodyweight measurement. Daily recording of weight. • 2. Neurological scoring. Weekly NeuroScore, a qualitative assessment of neurological disease progression based upon a five-point grading system. Scoring is defined as follows: • Score 0: Full extension of hind legs away from the lateral midline when the mouse is suspended by its tail, and the mouse can hold this extension for 2 seconds, being suspended 3 times consecutively. • Score 1: Collapse or partial collapse of the leg extension toward the lateral midline or trembling of hind legs during the tail suspension. • Score 2: Toes curl under at least twice during walking of 12 inches, or any part of the foot is dragging along the cage bottom or table. • Score 3: Rigid paralysis or minimal joint movement, the foot is not being used for forward motion. • Score 4: The mouse cannot right itself within 30 sec from either side. • 3. Grip strength test. Weekly forelimb grip strength, performed as follows: • a. Subjects are weighed and acclimated to the testing room for at least 60 min. • b. Equipment: Bioseb grip strength meter equipped with a grid for grasping that is suited for mice. • c. Mice are lowered towards the grid by their tails to allow for visual placing and for the mouse to grip the grid with their forepaws. • d. Subjects are firmly pulled horizontally away from the grid (parallel to the bench) for 3 consecutive trials with a brief (approximately 30 sec) rest period on the bench between trials. • e. The average force in grams of the 3 forepaw and 3 all-paws trials are analyzed with and without normalization to body weight. • 4. Retro-orbital blood collection. Bi-weekly retroorbital eye bleeds to determine drug exposure levels as well as levels of neurofilament light chain, a biomarker of axonal damage shown to correlate with ALS disease progression in human patients. Briefly, mice are sedated with isoflurane (5% induction, 2% maintenance) in O2. When they reach the plane of anesthesia, mice are withdrawn from isoflurane and blood is collected with a 25 μL glass capillary tube from the retro-orbital sinus, alternating sides for successive bleeds. 200 μL of whole blood is collected in a BD K2EDTA Microtainer collection tube containing 3.5 μL of 25X HALT protease inhibitor cocktail and kept on ice for processing. Mice are allowed to recover from the anesthesia, then returned to their home cage. Results […]

Structure (SMILES): Cc1cc(O)cc(C)c1C[C@H](NC(=O)[C@H](N)CCCNC(=N)N)C(=O)N[C@@H](CCCCN)c1nc(Cc2ccccc2)no1.Cl.Cl.Cl [Compound Ia, (R)-2-amino-N—((S)-1-(((S)-5-amino-1-(3-benzyl-1,2,4-oxadiazol-5-yl)pentyl)amino)-3-(4-hydroxy-2,6-dimethylphenyl)-1-oxopropan-2-yl)-5-guanidinopentanamide·3HCl]
- progression of neurological symptom onset (five-point neurological score) ([1]; female SOD1 G93A mice, daily intraperitoneal): no effects
- progression of neurological symptom onset (five-point neurological score) ([1]; male SOD1 G93A mice, 5.0 mg/kg daily intraperitoneal from 8 weeks of age, two-way ANOVA): delayed the progression of neurological symptom onset
- plasma NfL levels Mean Diff. (Dunnett's multiple comparisons test, Vehicle vs. 0.5 mg/kg) ([2]; female SOD1 G93A mice): −1075
- plasma NfL levels Mean Diff. (Dunnett's multiple comparisons test, Vehicle vs. 5.0 mg/kg) ([2]; female SOD1 G93A mice): 1291
- plasma NfL levels Mean Diff. (Dunnett's multiple comparisons test, Vehicle vs. 0.5 mg/kg) ([2]; male SOD1 G93A mice): 897.8
- plasma NfL levels Mean Diff. (Dunnett's multiple comparisons test, Vehicle vs. 5.0 mg/kg) ([2]; male SOD1 G93A mice): 3469
- accumulation of NfL in plasma ([2]; male SOD1 G93A mice, 5.0 mg/kg, 10 weeks of administration): statistically significant impact on the accumulation of NfL
